Data published in paper PMC6899342 (PeerJ, 2019).
Where no end group is shown, it is not given here.

Target: T1, PCV2 Cap protein (Porcine circovirus 2, UniProt O56129)
T1 construct: made in house; host or cells: E. coli BL21 (pET28a-Cap)
Experiment: biochemical
Format: binding, porcine circovirus type II
Details: for kon: pH 7.4, read-out: ka
Protocol: The equilibrium binding constant (KD) of peptides was determined using an Open SPR instrument (Nicoya, Canada). First, purified Cap protein was covalently immobilized on a carboxyl Au colloidal nanoparticles chip. […] Then, all peptides were respectively dissolved in PBS at predetermined concentrations and injected to detect the resonance signal changes. In each cycle, 300 µL of peptide solution was injected into the flow cell of the Cap chip for 5 min. Finally, the data were assessed to determine the association constant (ka, 1/Ms), the dissociation constant (kd, 1/s), the equilibrium binding constant (KD, M), and KD = kd/ka via Trace Drawer 1.7 (Nicoya, Canada).
All the steps were performed according to manufacturer’s instructions. First, the activation of carboxyl chip: the chip is activated by the EDC/NHS reagent in the amine coupling kit. […] The last step is to block the chip with blocking buffer. In every step, The 300 μL sample was flowed through the chip for 5 min at a constant flow rate of 20 μL/min.
Dissociation constant Kd represents the ratio of AB (ie, AB) dissociated in unit time to the initial AB before dissociation, which represents the speed of the dissociation reaction.Equilibrium dissociation constant KD =kd/ka, KD unit is M (mol/L)
1:1 binding interaction model represents the binding mode of ligand and target according to 1:1. The1:1 binding interaction model is a differential equation:
dY/dt = (k a * c - k d )* Y

T1 sequence (O56129 whole entry): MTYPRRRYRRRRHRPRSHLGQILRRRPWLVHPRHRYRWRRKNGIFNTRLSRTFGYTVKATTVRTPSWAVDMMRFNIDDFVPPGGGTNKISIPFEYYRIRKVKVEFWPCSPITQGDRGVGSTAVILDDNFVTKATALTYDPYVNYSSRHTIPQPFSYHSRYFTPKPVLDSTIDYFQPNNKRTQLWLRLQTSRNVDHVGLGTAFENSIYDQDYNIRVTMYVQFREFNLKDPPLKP

**Q.** How did the Kd turn out when WQSWEWTG [Peptide L9] was run?
**A.** The Kd was 6.71 µM.

**Q.** What about the kon of the same substance?
**A.** Its kon is 855 M⁻¹ s⁻¹.

**Q.** WQGMMKEE [Peptide L4] was tested. Which Kd did it give?
**A.** Its Kd is 1.23 µM.

**Q.** And the kon?
**A.** Its kon is 1920 M⁻¹ s⁻¹.

**Q.** What does the source list for RKHKRWK [Peptide L7]?
**A.** Kd: 1.06 µM; kon: 856 M⁻¹ s⁻¹

**Q.** For KWWQSWEW [Peptide L13], which Kd is on record?
**A.** The Kd was 9.97 µM.

**Q.** What about the kon of the same substance?
**A.** The kon was 335 M⁻¹ s⁻¹.
